The text below walks through data of patent publication US20250026721A1, “COMPOUNDS AND METHODS FOR MODULATING RAS-PI3K” (Vividion Therapeutics, Inc., priority 2023, published 2025).

This test addresses T1, PIK3CA_C242 (Homo sapiens, UniProt P42336).
T1 construct: endogenous in cells; host or cells: Jurkat cell lysate
The experiment in a line: Proteomic TE50 (IA-DTB / TMT mass spectrometry) in Jurkat cell lysate. The conditions noted are these: 1 hour at rt, 7-point dose response. Format: binding. The procedure: Example 4. Proteomic TE50 In vitro TE50 values for PIK3CA_C242 were obtained by treating 500 μg of cell lysate generated from Jurkat cells with DMSO or compound for 1 hour at rt followed by the addition of 200 μM desthiobiotin polyethyleneoxide iodoacetamide (IA-DTB) in DMSO for one hour at rt. Compounds were serially diluted 1:5 for a total of 7 points in order to generate dose response curves. Samples were then precipitated by the addition of 8× ice cold acetone and incubated at -80° C. for two hours. Protein was then pelleted by centrifugation (4,200 RPM, 45 min, 4° C.). The pelleted material was resuspended in 9M urea, 50 mM ammonium bicarbonate and proteins were reduced and alkylated by the addition of DTT and iodoacetamide (10 and 30 mM, respectively). Following reduction and alkylation, samples were exchanged into 2M urea (Zeba spin desalting plates, Thermo Fisher) and digested with Trypsin. IA-DTB labeled peptides were isolated with streptavidin agarose resin. Enriched peptides were eluted by the addition of 50% acetonitrile (ACN) 0.1% formic acid (FA) and dried in a SpeedVac vacuum concentrator. […] Reactions were quenched by the addition of 6.5 μL of 5% hydroxylamine. Samples were then combined and desalted on a Evolute express ABN plate (Biotage, 600-0010-PX01). Targeted TMT measurements were collected using an Orbitrap Lumos Tribrid Mass Spectrometer (Thermo Scientific) coupled to an UltiMate 3000 Series Rapid Separation LC system and autosampler (Thermo Scientific Dionex). Peptides were eluted onto a custom C18 capillary analytical column (75-μm inner diameter fused silica, packed with Acclaim PepMap C18 resin; Thermo Scientific) using an Acclaim PepMap 100 (Thermo 164535) loading column, and separated at a flow rate of […]. Data were acquired using a specific MS3-based TMT method targeting the peptide containing […], +2 charge state) where MS2 peptide fragmentation is triggered upon detection of the peptide precursor ion. Subsequent MS3 analysis was then performed using pre-selected peptide fragment ions that were isolated for fragmentation using synchronous precursor selection. RAW files were converted to MZXML format and searched with the SEQUEST algorithm using the […] software package. TMT quantitation was performed with a filter requiring at least ten summed signal-to-noise (S/N) for control channels. TE50 values were calculated from 7-point dose response curves created using the reporter ion S/N for each channel.

T1 sequence (P42336 whole entry): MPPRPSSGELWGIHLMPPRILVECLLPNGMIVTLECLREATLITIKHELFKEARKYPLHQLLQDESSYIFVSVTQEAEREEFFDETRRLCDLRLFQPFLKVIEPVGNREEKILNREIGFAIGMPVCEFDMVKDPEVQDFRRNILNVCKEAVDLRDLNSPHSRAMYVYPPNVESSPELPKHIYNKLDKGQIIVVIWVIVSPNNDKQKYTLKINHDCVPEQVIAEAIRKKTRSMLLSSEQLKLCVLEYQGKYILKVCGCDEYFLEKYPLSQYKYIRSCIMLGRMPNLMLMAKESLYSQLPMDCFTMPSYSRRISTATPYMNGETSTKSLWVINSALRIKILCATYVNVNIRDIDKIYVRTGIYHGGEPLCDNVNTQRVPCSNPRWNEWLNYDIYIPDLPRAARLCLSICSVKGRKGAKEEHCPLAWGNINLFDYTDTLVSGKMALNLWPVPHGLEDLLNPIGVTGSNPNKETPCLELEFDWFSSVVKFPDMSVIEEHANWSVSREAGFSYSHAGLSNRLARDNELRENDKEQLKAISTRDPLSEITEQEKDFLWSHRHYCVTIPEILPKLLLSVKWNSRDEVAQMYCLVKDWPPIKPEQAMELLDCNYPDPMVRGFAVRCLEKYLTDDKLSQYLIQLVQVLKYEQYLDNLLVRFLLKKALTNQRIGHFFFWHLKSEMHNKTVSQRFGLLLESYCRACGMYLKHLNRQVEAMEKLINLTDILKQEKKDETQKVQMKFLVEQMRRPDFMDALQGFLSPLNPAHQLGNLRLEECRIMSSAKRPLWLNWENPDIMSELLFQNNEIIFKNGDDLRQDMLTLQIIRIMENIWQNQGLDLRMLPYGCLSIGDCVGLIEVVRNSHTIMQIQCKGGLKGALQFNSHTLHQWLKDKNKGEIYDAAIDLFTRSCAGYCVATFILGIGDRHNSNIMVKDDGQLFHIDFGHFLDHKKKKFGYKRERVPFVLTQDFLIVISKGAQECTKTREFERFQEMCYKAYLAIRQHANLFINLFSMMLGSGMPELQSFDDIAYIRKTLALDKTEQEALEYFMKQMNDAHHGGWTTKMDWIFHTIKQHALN
T1 sequence (P27986 whole entry partner): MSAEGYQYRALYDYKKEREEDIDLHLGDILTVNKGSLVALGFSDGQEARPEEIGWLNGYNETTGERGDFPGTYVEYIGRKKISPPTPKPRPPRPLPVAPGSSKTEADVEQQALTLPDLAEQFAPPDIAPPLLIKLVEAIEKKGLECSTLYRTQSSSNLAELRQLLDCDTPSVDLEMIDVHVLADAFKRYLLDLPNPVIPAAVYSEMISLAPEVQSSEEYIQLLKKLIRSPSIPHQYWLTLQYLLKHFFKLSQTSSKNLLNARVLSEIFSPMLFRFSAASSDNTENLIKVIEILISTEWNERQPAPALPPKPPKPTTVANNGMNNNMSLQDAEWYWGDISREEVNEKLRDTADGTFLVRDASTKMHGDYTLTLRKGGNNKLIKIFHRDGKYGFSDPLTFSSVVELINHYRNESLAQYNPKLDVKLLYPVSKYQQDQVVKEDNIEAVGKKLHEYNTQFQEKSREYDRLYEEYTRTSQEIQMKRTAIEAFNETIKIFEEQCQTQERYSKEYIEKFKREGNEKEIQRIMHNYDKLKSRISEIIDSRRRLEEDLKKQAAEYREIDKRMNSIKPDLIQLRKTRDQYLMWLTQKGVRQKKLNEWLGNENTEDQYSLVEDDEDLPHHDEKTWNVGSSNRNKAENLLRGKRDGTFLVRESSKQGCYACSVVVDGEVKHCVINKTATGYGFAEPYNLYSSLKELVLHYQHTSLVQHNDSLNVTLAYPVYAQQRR

The term IC50 denotes the concentration that inhibits the measured activity by half. Lower therefore signals greater potency. In the case of `COc1cccc(-c2cc(Cl)ccc2S(=O)(=O)N2CCC(F)(C(=O)NC/C=C/S(C)(=O)=O)CC2)c1` [Compound 36, (E)-1-((5-chloro-3′-methoxy-[1,1′-biphenyl]-2-yl)sulfonyl)-4-fluoro-N-(3-(methylsulfonyl)allyl)piperidine-4-carboxamide], the midpoint of inhibition, the IC50, lay at 0.75 µM. This lies in the sub-micromolar range. With `COc1ccc(S(=O)(=O)N2CCC(F)(C(=O)NC/C=C\C#N)CC2)c(-c2ccccc2Cl)c1` [Compound 71, (Z)-1-((2′-chloro-5-methoxy-[1,1′-biphenyl]-2-yl)sulfonyl)-N-(3-cyanoallyl)-4-fluoropiperidine-4-carboxamide], the IC50 was determined as 0.16 µM. Against the preceding molecule, the IC50 is about 4.7-fold lower.

In turn, `N#C/C=C/CNC(=O)C1(F)CCN(S(=O)(=O)c2cnc(Br)cc2-c2ccccc2Cl)CC1` [Compound 278, (E)-1-((6-bromo-4-(2-chlorophenyl)pyridin-3-yl)sulfonyl)-N-(3-cyanoallyl)-4-fluoropiperidine-4-carboxamide] yielded an IC50 of 0.24 µM.

`CS(=O)(=O)/C=C/CNC(=O)C1(F)CCN(S(=O)(=O)c2ccc(Cl)cc2-c2cccc(Cl)c2)CC1` [Compound 45, (E)-1-((3′,5-dichloro-[1,1′-biphenyl]-2-yl)sulfonyl)-4-fluoro-N-(3-(methylsulfonyl)allyl)piperidine-4-carboxamide] yielded a 50% inhibitory concentration (IC50) of 0.42 µM. Against the preceding molecule, the IC50 is about 1.8-fold higher. The figure for `CS(=O)(=O)/C=C/CNC(=O)C1(F)CCN(S(=O)(=O)c2ccc(Cl)cc2-c2ccccc2)CC1` [Compound 37, (E)-1-((5-chloro-[1,1′-biphenyl]-2-yl)sulfonyl)-4-fluoro-N-(3-(methylsulfonyl)allyl)piperidine-4-carboxamide] is 0.297 µM; for `COc1cc(-c2ccccc2Cl)c(S(=O)(=O)N2CCC(F)(C(=O)NC/C=C\C#N)CC2)cn1` [Compound 194, (Z)-1-((4-(2-chlorophenyl)-6-methoxypyridin-3-yl)sulfonyl)-N-(3-cyanoallyl)-4-fluoropiperidine-4-carboxamide] it is 0.27 µM; for `COc1cccc(-c2cc(OC)ccc2S(=O)(=O)N2CCC(F)(C(=O)NC/C=C/S(C)(=O)=O)CC2)c1` [Compound 39, (E)-1-((3′,5-dimethoxy-[1,1′-biphenyl]-2-yl)sulfonyl)-4-fluoro-N-(3-(methylsulfonyl)allyl)piperidine-4-carboxamide] it is 0.716 µM. For `CN(C)c1ccc(S(=O)(=O)N2CCC(F)(C(=O)NC/C=C/S(C)(=O)=O)CC2)c(-c2ccccc2)c1` [Compound 94, (E)-1-((5-(dimethylamino)-[1,1′-biphenyl]-2-yl)sulfonyl)-4-fluoro-N-(3-(methylsulfonyl)allyl)piperidine-4-carboxamide] the value was 0.19 µM; for `COc1ccc(S(=O)(=O)N2CCC(F)(C(=O)NC/C=C/S(C)(=O)=O)CC2)c(-c2ccccc2Cl)c1` [Compound 43, (E)-1-((2′-chloro-5-methoxy-[1,1′-biphenyl]-2-yl)sulfonyl)-4-fluoro-N-(3-(methylsulfonyl)allyl)piperidine-4-carboxamide], 0.264 µM; for `COc1cccc(-c2ccccc2S(=O)(=O)N2CCC(F)(C(=O)NC/C=C/S(=O)(=O)C3CCN(C)CC3)CC2)c1` [Compound 228, (E)-4-fluoro-1-((3′-methoxy-[1,1′-biphenyl]-2-yl)sulfonyl)-N-(3-((1-methylpiperidin-4-yl)sulfonyl)allyl)piperidine-4-carboxamide], 0.69 µM.

`C=Cc1ccc(S(=O)(=O)N2CCC(F)(C(=O)N[C@H](C)/C=C\S(C)(=O)=O)CC2)c(-c2ccccc2C)c1` [Compound 108, (R,Z)-4-fluoro-1-((2′-methyl-5-vinyl-[1,1′-biphenyl]-2-yl)sulfonyl)-N-(4-(methylsulfonyl)but-3-en-2-yl)piperidine-4-carboxamide] gave an IC50 of 0.12 µM.
